Here are results for 22 molecules from patent publication US7022721B1, “Method and composition for rejuvenating cells, tissues, organs, hair and nails” (priority 2001, dated 2006).

Data set [1] has as its system Non-enzymatically browned BSA (AGE-BSA) coupled to Collagen Type-I coated plates. In words: Assay of Uncoupling Activity on non-enzymatically browned BSA coupled to collagen coated plates (ELISA). The following applies: for % uncoupling at 20 mM, 1 day / % uncoupling at 10 mM, 2 days: sugar-mediated coupling of albumen to collagen; for % uncoupling at 5 mM, 1 day: naphthothiazolium test compounds. It counts as biochemical. As for the experimental part:
Assay of Uncoupling Activity on Non-Enzymattically Browned BSA Coupled to Collagen Coated Plates
Equipment, Reagents, and Other Materials
Mix equal volume of BSA (50 mg/ml in 1×PBS) and glucose (0.5 M in PBS); keep the solution (after filtered through a 0.22 µm filter and placed in a capped bottle) in a 37° C. incubator for 5 weeks.
Remove an aliquot of the solution and dialyze against 500-fold volume of PBS, with 4 changes of buffer within 2 days. Collect the solution, as AGE-BSA, from dialysis bag and determine the protein concentration. […] During this hour, • Rinse the plate washer with autoclaved dH2O and then flush 3 times with PBS-Tween washing buffer containing 0.05% of Tween-20. • Dilute AGE-BSA in 1×PBS to 0.03 g/l. […] (Record the hours of incubation.) • In the meantime, run maintenance program (Overnight rinse/soak) on the plate washer using autoclaved distilled H2O. • After incubation, flush the plate washer 3 times with PBS-Tween washing buffer. • Wash the plate 4 times with 1×PBS buffers containing 0.2% Tween-20. • Wash 6 more times with PBS-0.05% Tween washing buffer in two directions, 3 times/direction. • Prepare 1:8000 dilution (in 1×PBS) of anti-BSA antibody (rabbit IgG-HRP) • Add 50 1 of diluted antibody to the wells, incubate at room temperature for 30 min. • Wash 8 times with PBS-0.05% Tween washing buffer in two directions, 4 times/direction. • Add 100 1 of TMB substrate solution to the wells; incubate at RT for 15 min. • Stop the reaction by adding 100 1 of 2 M H2SO4. • Read absorbance at 450 nm in an ELISA plate reader. • Plot and analyze data.
(In general: An ELISA detects its analyte on a solid surface through an enzyme-linked reagent.)

Data set [2] in a line: Hair stress vs. strain relationship (stiffness) before and after treatment. The text has this: Methodology for Determination of Hair Stress vs. Strain Relationship (Stiffness).
The distensibility (i.e, elasticity, rigidity, shear, tensile strength, compression, etc.) of hair, nails, tendons, etc. can be easily determined using widely available commercial devices, such as manufactured by Instron. Alternatively, other test methods known to a practitioner of the art may be employed.
The test assay for determining whether hair has been “rejuvenated” for the present invention is the following. Individual scalp hairs were cemented into the ends of glass capillary tubes such that several centimeters of the shaft protruded from the end. This hair was then trimmed to extend 18 mm from the end of the tube. […] Thus, this determination of stress vs strain of bending assessed elasticity, compressibility, and shear of each hair shaft. Each hair served as its own control, with baseline and post-treatment properties assessed and directly compared.
A 1 mm thick plate with a 0.5 mm diameter hole drilled through was attached to the surface of an isometric strain gauge. […] The force required to bend each hair a specified distance was determined over a wide range of displacements. […] For purposes of the present invention, the term “rejuvenated” hair shall mean an improvement of at least 20% in the measured values of the treated hair, toward the values seen in young, undamaged hair (i.e. healthy human). […]

Several values for one entry are separate records, joined by “and”; a condition that tells them apart may be missing. Equal entries are not always repeated. Structures can show the parent of a compound that is named as a salt.

Take `Cc1nc2c(c[n+]1CC(=O)c1ccccc1)CNC(=O)N2.[Br-]` [2-Methyl-3-(2-oxo-2-phenylethyl)-7-oxo-5,6,7,8-tetrahydropyrimidino [4,5-d]pyrimidin-3-ium bromide]: in data set [1] (1 day), the “% uncoupling, 1 day (footnote a: at 30 mM)” value is recorded as 22^a %.
By melting point is commonly meant the temperature, or range, at which the solid turns liquid. `Cc1sc(C(C)O)[n+](CC(=O)c2ccccc2)c1C.[Br-]` (stereo not shown) [4,5-dimethyl-2-(1-hydroxyethyl)-3-(2-oxo-2-phenylethyl)thiazolium bromide] had a melting point of 174 to 176 °C. For the same molecule, the “% uncoupling at 20 mM, 1 day” value in data set [1] (1 day) is reported as 45%.
For `Cc1c(O)c2ccccc2c2c1sc(NC1CCCCC1)[n+]2CCCN1CCN(C)CC1.[Cl-]` [2-(Cyclohexylimino)-1,2-dihydro-4-methyl-1-[3-(4-methyl-1-piperazinyl)propyl]naphtho[1,2-d]thiazol-5-ol trihydrochloride], in data set [1] (1 day), the “% uncoupling at 5 mM, 1 day” value was 21%.
`CCc1scc(C)[n+]1CC(=O)c1ccccc1.[Br-]` [2-Ethyl-4-methyl-3-(2-oxo-2-phenylethyl)thiazolium bromide]: the “% uncoupling at 20 mM, 1 day” value in data set [1] (1 day) is given as 57%.
Same read-out and setting: for `CC(OC(=O)c1ccccc1)c1scc[n+]1CC(=O)c1ccccc1.[Br-]` (stereo not shown) [3-(2-Oxo-2-phenylethyl)-2-(1-benzoyloxyethyl)thiazolium bromide] the value was 68%.
Consider `Cc1csc(C)[n+]1CC(=O)c1ccccc1.[Br-]` [2,4-Dimethyl-3-(2-oxo-2-phenylethyl)thiazolium bromide], for which the “% uncoupling at 10 mM, 2 days” value in data set [1] (10 mM) is listed as 36%. In addition, in data set [1] (1 day), the “% uncoupling at 20 mM, 1 day” value is listed as 51%.
`CCN=c1sc2c(C)c(O)c3ccccc3c2n1CC.Cl` [1-ethyl-2-(ethylimino)-1,2-dihydro-4-methylnaphtho[1,2-d]thiazol-5-ol monohydrochloride]: the “stiffness of hair after treatment” value in data set [2] (FIG. 1) was “decreases the stiffness of hair”. For the same molecule, in data set [2] (hair immersed in 10 mM solution for 15 minutes, strain greater than about 0.06), the “resulting stress less than before treatment (hair stiffness)” value was “about 50%”. Further, the “% uncoupling at 5 mM, 1 day” value in data set [1] (1 day, monohydrochloride) was 59% and 58%.
As to `Cc1sc[n+](CC(=O)c2ccccc2)c1C.[Cl-]` [4,5-Dimethyl-3-(2-oxo-2-phenylethyl)thiazolium chloride, reference compound], the “% uncoupling at 10 mM, 2 days” value in data set [1] (10 mM) is listed as 52%. Also, the “% uncoupling at 20 mM, 1 day” value in data set [1] (1 day) is recorded as 39%.
In the case of `Cc1sc2[n+](c1C)C=C(c1ccccc1)OC2C.[Br-]` (stereo not shown) [2,3,8-Trimethyl-6-phenyl-8H-thiazolo[2,3-c](1,4)oxazin-4-ium bromide], the “% uncoupling at 20 mM, 1 day” value in data set [1] (1 day) is recorded as 34%.
On the same count and under the same terms, then `O=C(C[n+]1ccccc1Cc1ccccc1)c1ccccc1.[Br-]` [2-benzyl-1-(2-oxo-2-phenylethyl)pyridinium bromide], with 54%.
For `O=C(Cn1cc[n+](CC(=O)c2ccccc2)c1)c1ccccc1.[Br-]` [1,3-bis(2-oxo-2-phenylethyl)imidazolium bromide], the “% uncoupling, 1 day (footnote b: at 10 mM)” value in data set [1] (10 mM, 1 day) is 25^b %.
As for `CC(=O)OC(C)c1scc[n+]1CC(=O)N1CCCC1.[Br-]` (stereo not shown) [3-[2-Oxo-2-(1-pyrrolidinyl)ethyl]-2-(1-acetoxyethyl)thiazolium bromide], in data set [1] (1 day), the “% uncoupling at 20 mM, 1 day” value is reported as 46%.
As to `Cc1c(O)c2ccccc2c2c1sc(NC1CCCCC1)[n+]2CCCN1CCOCC1` [2-(Cyclohexylimino)-1,2-dihydro-4-methyl-1-[3-(4-morpholino)propyl]naphtho[1,2-d]thiazol-5-ol dihydrochloride], the “% uncoupling at 5 mM, 1 day” value in data set [1] (1 day) is 22%.
Molecule `N#CCc1cccc[n+]1CC(=O)N1CCCC1.[Cl-]` yielded a melting point of 130 to 132 °C.
For `CC(O)c1scc[n+]1CC(=O)c1ccccc1.[Br-]` (stereo not shown) [3-(2-Oxo-2-phenylethyl)-2-(1-hydroxyethyl)thiazolium bromide], the “% uncoupling at 10 mM, 2 days” value in data set [1] (10 mM) came out at 54%.
Take `CC(=O)OC(C)c1scc[n+]1CC(=O)c1ccccc1.[Br-]` (stereo not shown) [3-[2-Oxo-2-phenylethyl]-2-(1-acetoxyethyl)thiazolium bromide]: the “% uncoupling at 20 mM, 1 day” value in data set [1] (1 day) is recorded as 52%.
As for `Cc1c(O)c2ccccc2c2c1sc(=NC(C)C)n2CCCN(C)C.Cl.Cl` [1,2-dihydro-1-[3-(dimethylamino)propyl]-4-methyl-2-[(1-methylethyl)imino]naphtho[1,2-d]thiazol-5-ol dihydrochloride], the “% uncoupling at 5 mM, 1 day” value in data set [1] (1 day) came to 19%.
`CC(O)c1scc[n+]1CC(=O)N1CCCC1.[Cl-]` (stereo not shown) [2-(1-hydroxyethyl)-3-[2-oxo-2-(1-pyrrolidinyl)ethyl]thiazolium chloride]: the “% uncoupling at 10 mM, 2 days” value in data set [1] (10 mM) is given as 32%.
As to `Cc1c(O)c2ccccc2c2nc(NCCCN3CCOCC3)sc12` [4-Methyl-2-[[3-(4-morpholino)propyl]amino]naphtho[1,2-d]thiazol-5-ol dihydrochloride], the “% uncoupling at 5 mM, 1 day” value in data set [1] (1 day) is 36%.
Consider `CC1OC(=O)C[n+]2ccsc21.[Br-]` (stereo not shown) [5,6-Dihydro-8-methyl-6-oxo-8H-thiazolo[2,3-c](1,4)oxazin-4-ium bromide], for which the melting point was 214 to 215.5 °C. Besides, the “% uncoupling, 1 day (footnote a: at 30 mM)” value in data set [1] (1 day) is 36^a %.
With `N#CCc1cccc[n+]1CC(=O)N1CCCC1.[Br-]` [1-[2-(1-pyrrolidinyl)-2-oxoethyl]-2-(cyanomethyl)pyridinium bromide], in data set [1] (10 mM), the “% uncoupling at 10 mM, 2 days” value is recorded as 68%.
As for `CC(O)c1scc[n+]1CC(=O)O` (stereo not shown) [3-carboxymethyl-2-(1-hydroxyethyl)thiazole], the “% uncoupling at 20 mM, 1 day” value in data set [1] (1 day) came out at 47%.
